Patent US20190071796A1, “PROCESS AND APPARATUS FOR MAKING ALIGNED OR TWISTED ELECTROSPUN FIBERS AND DEVICES” (The Johns Hopkins University, priority 2016, published 2019)

Assay: In vitro release of sunitinib from PLGA nanofiber-based mesh
Format: physicochemical
Conditions: 10% sunitinib/PLGA (w/w) (FIG. 14)

Compound: CCN(CC)CCNC(=O)c1c(C)[nH]c(/C=C2\C(=O)Nc3ccc(F)cc32)c1C [sunitinib, Sunitinib malate]
- duration of in vitro sustained release: 30 days
